This note sets out measurements from US20250114313A1, “OLIGO-BENZAMIDE ANALOGS AND THEIR USE IN CANCER TREATMENT” (BOARD OF REGENTS, THE UNIVERSITY OF TEXAS SYSTEM, priority 2022, published 2025).

Test [1] deals with MDA-MB-231 TNBC tumor xenografts. Put plainly: IHC of ER stress markers in TNBC xenografts after a single dose. In kind it is in vivo, mice. The note with it: single dose 10 mg/kg oral, within 24 h. As to the method: Immunohistochemistry: Immunohistochemical studies were performed as described previously.^7 For the immunohistochemical studies, tissue sections were blocked in background sniper (Biocare Medical, RS966L) followed by overnight incubation with primary antibodies anti-Ki-67 antibody (1:1000, GeneTex cat #GTX16667 RRID:AB_422351) (link), anti-CHOP antibody (1:2000, Sigma, Cat #HPA068416), anti-PERK (phospho T982) antibody (1:150, Abcam Cat #ab192591, RRID:AB_2728666) link)), anti-phospho-eIF2α (Ser51) (1:50, Cell signaling, cs3398) and subsequent secondary antibody incubation for 60 min at room temperature. Immunoreactivity was visualized by using the DAB substrate and counterstained with hematoxylin (Vector Lab, Inc.). Percent of Ki67 positive proliferating cells was calculated in five randomly selected high-power fields (×40).

For test [2], the system named is SUM-159 cells with LIPA-KO reconstituted with LIPA constructs. Put plainly: Response of SUM-159 LIPA KO cells reconstituted with LIPA constructs (CellTiter-Glo, western, RT-qPCR). The test is classed as cell-based, Human. As to the method: (§1) Cell viability assays: Cells were seeded in 96-well plates (2×10^3 cells/well) one day before the treatment. Cells were treated with varying concentrations of ERX-41 or ERX-11 analogs for 3-6 days. Then effects of ERX-41 or ERX-11 analogs on cell viability were measured in triplicate or sextuplicate with multiple biological replicates using the WST-1 (Promega), MTT as previously described^33 or CellTiter-Glo 2.0 (Promega) assays.
Lentiviral constructs cloning: LentiCRISPRv2 vector was used for CRSPR KO experiments. sgRNAs, which were chosen from human CRISPR knockout pooled library, were cloned into lentiCRISPRv2 vector^34. Human LIPA cDNA (GenBank: BC012287) or mouse LIPA cDNA (NM_021460) were clone into pWPI for over expression experiments. For TurboID experiment, the LIPA-TurboID sequence was cloned into pCW57-MCS1-2A-MCS2 vector. LentiCRISPR v2 was purchased from Addgene (Addgene #52961; //n2t.net/addgene:52961; RRID:Addgene_52961) (via Feng Zhang). pWPI was purchased from Addgene (Addgene #12254; //n2t.net/addgene:12254; RRID:Addgene_12254) (via Didier Trono). pCW57-MCS1-2A-MCS2 was purchased from Addgene (#71782) (via Adam Karpf). Human LIPA gene is referred as LIPA, while mouse LIPA gene is referred as mLIPA in this disclosure. Since LIPA overexpression was introduced in LIPA CRISPR KO background, to avoid being targeted by CRISPR-cas9, the LIPA sgRNA target sequence including PAM, tt aac cga att cct cat ggg agg, was mutated to tt aac cga att cct caC ggA agA in all of the LIPA overexpression constructs without protein coding change. In-Fusion Cloning kit (Takara) was used to generate different mutants of LIPA.
Western blotting: Whole cell lysates from breast cancer cells were prepared with 2× sample buffer (60 mM Tris-HCl, pH 6.8, 2% sodium dodecyl sulfate, 10% glycerol), and before loading mixed with loading buffer (5% 2-mercaptoethanol, 0.1% bromophenol blue) and boiled for denaturation, as previously described.^33 Proteins were separated by SDS-PAGE and subjected to Western analysis using antibodies. To detect nascent translated proteins, puromycin (final concentration 10 μg/mL) was added into cell plates 30 minutes before harvesting cells. Then samples were subjected to the Western blotting. Nascent proteins were detected by anti-puromycin antibody.
Real-time quantitative PCR (RT-qPCR): Total RNA was prepared from breast cancer cells using the RNeasy Mini Kit (Qiagen) according to the manufacturer protocols. Subsequently, total RNAs were reverse transcribed into cDNA using iScript Reverse Transcription Supermix (Bio-rad) and by using SYBR Green on an Illumina Real-Time PCR system.
(Cellular ATP, detected with luciferase, serves as a proxy for viable cell number.)

A further test has as its system TNBC cells (MDA-MB-231). Description: Transmission electron microscopy of ER. The test is classed as cell-based, Human. The note with it: 1 μM, within 4 h. How it is done:
Transmission Electron Microscopy: DMSO or ERX-41 treated cells were fixed with 2.5% glutaraldehyde (Electron Microscopy Sciences) in 0.1 M sodium cacodylate pH7.4 buffer (Electron Microscopy Sciences) for 20 min at room temperature. After rinsing with 0.1 M sodium cacodylate pH7.4 buffer, cells were further fixed with 1% Osmium with 0.8% K3Fe(CN6) in 0.1 M sodium cacodylate pH7.4 buffer. After pre-staining with 4% uranyl acetate in 50% ethanol, cells were dehydrated with series concentrations of ethanol (from 50% to 100%). After transitioning from propylene oxide to resin and embedding in Embed 812 resin (Electron Microscopy Sciences), cells were located using light microscopy and trimmed out. 60-70 nm-thin sections were cut, mounted on formvar-coated grids, and viewed by a transmission electron microscope (Tecnai G2 spirit; FEI) equipped with a LaB6 source using a voltage of 120 kV.

For test [3], the system named is 21 human preclinical TNBC cell line models. Put plainly: CellTiter-Glo cell viability, TNBC cell lines. In kind it is cell-based. The note with it: 21 TNBC cell lines, read-out: anti-proliferative IC50, CellTiter-Glo. How it is done:
as §1

As to `CC(C)COc1cc(C(=O)Nc2ccc(C(=O)N[C@H]3CC[C@H](C)CC3)cc2OCC(C)C)ccc1NC(=O)c1ccc([N+](=O)[O-])c(OCCO)c1` [ERX-41], the “ER stress markers in tumor xenograft tissues” value in test [1] is “enhanced p-PERK, and p-eIF2α staining”. In addition, the “responsiveness with mouse LXXLL sequence or mouse LIPA cDNA” value in test [2] (ER stress and cell death) is recorded as “restore responsiveness”. Besides, the IC50 (as a rule, the midpoint of a concentration-inhibition curve) in test [2] (Homo sapiens, SUM159, SUM-159 LIPA-KO + WT-LIPA, read-out: IC50 after reconstitution of WT-LIPA (KO+WT)) is 250 nM; in test [3] it was under 250 nM. The “proliferation and ER stress with LXXLL point mutants” value in test [2] (KO+L242P, KO+L239P/L242P, KO+L239P/L242P/L243P) is reported as “inability of ERX-41 to affect proliferation or induce ER stress”. In test [2] (lipase-competent mutant), the “sensitivity after reconstitution of ΔLXXLL MT-LIPA (KO+ΔLXXLL)” value was “did not restore sensitivity to ERX-41”. Further, in test [2] (lipase-incompetent mutant), the “sensitivity after reconstitution of H274Y MT-LIPA (KO+H274Y)” value was “restored sensitivity to ERX-41”. The “ER stress and proliferation with LIPA with added KDEL sequence” value in test [2] (localized to the ER) is given as “restores the ability of ERX-41 to cause ER stress”. Besides, in test [2] (not localized to the ER), the “ER stress and proliferation with LIPA lacking the signal peptide” value is reported as “nor restore the ability of ERX-41 to cause ER stress”. The “ER morphology by TEM” value with TNBC cells (MDA-MB-231) is reported as “dramatic dilation of the ER”.
